Measured values taken from paper PMC12621184, “Synthesis and Pharmacological Characterization of Nociceptin/Orphanin FQ Dimeric Ligands” (Journal of Medicinal Chemistry, 2025).
Entries after “also recorded” stand apart in the source; their conditions may differ. Bridge positions count the residues as written; N and C are the ends. Ends that are not written are not given here. Peptide text beside a SMILES is read from it. I, II: the chains in the order shown.

Assays:
sleep in rats = conditions: reported in the literature, ref not given; cited from earlier work
[1] = tested on: mouse vas deferens from NOP(+/+) mice; assay: Electrically stimulated mouse vas deferens bioassay, NOP(+/+) tissues; conditions: for potency (pEC50) for inhibition of electrically induced contractions / maximal inhibition of electrically induced contractions: mVD from CD-1 NOP(+/+) mice, 5 experiments; for potency (pEC50) for inhibition of electrically induced contractions: 33 °C, mean (CL95%); for maximal inhibition of electrically induced contractions: mean ± sem
Protocol: (§1) This study was approved by the Animal Welfare Body of the University of Ferrara and by the Italian Ministry of Health (authorization number CBCC2.N.BXI). Experiments were performed on an isolated mouse vas deferens. All experiments were conducted with mice bred and housed in the University of Ferrara’s animal facility under specific pathogen-free conditions (SPF). All mice were housed in cages with individual ventilation, with a constant temperature of 21 °C, 60% humidity, and a 12 h light/dark cycle. Food and water were provided ad libitum. CD-1 NOP(+/+) and CD-1 NOP(−/−) male mice, aged 9 to 12 months, were used. Animals were sacrificed on the day of the experiment with CO2 overdose. Bioassay experiments were performed as previously described. The tissues were suspended in 5 mL organ bath containing Krebs solution (NaCl 118.5 […]). The Krebs solution was oxygenated with 95% O2 and 5% CO2 and the temperature set at 33 °C with a resting tension of 0.3 g applied to the tissues. Tissues were stimulated through two platinum electrodes with a supramaximal rectangular pulse of 1 ms duration, 0.05 Hz frequency, and 80 V of amplitude. The electrically evoked contractions were measured isotonically by means of Basile strain gauge transducers (Basile, IT) and a recorder with a Power Lab 8 instrument (ADInstruments, CO, U.S.). Following an equilibration period of approximately 60 min, the contractions induced by electrical field stimulation were stable. At this time, cumulative concentration response curves were carried out.
(§2) Concentration-response curves to agonists were analyzed by a four-parameter logistic nonlinear regression model: Effect = baseline + (E max – baseline)/(1 + 10^((logEC50–log[ligand])slope)). […] Experimental data were expressed as mean ± sem of at least 5 experiments. Potency values were expressed as the mean and CL95%. In vitro E max values were analyzed by one-way ANOVA, while in vivo latency data were evaluated by one-way ANOVA followed by Dunnett’s post hoc test. The proportion of mice losing the righting reflex was compared by Fisher’s exact test performed on raw data. GraphPad Prism 10.0 software was used for all of the analyses. The terminology employed is consistent with the International Union of Basic and Clinical Pharmacology (IUPHAR) recommendations. ,

[2] = tested on: mouse vas deferens from NOP(−/−) mice; assay: Electrically stimulated mouse vas deferens bioassay, NOP(−/−) tissues; conditions: mVD from CD-1 NOP(−/−) mice; 5 experiments
Protocol: as §1
Concentration-response curves to agonists were analyzed by a four-parameter logistic nonlinear regression model: Effect = baseline + (E max – baseline)/(1 + 10^((logEC50–log[ligand])slope)). […] Experimental data were expressed as mean ± sem of at least 5 experiments. Potency values were expressed as the mean and CL95%. In vitro E max values were analyzed by one-way ANOVA, while in vivo latency data were evaluated by one-way ANOVA followed by Dunnett’s post hoc test. […]

[3] = tested on: loss of the righting reflex (RR) in mice; assay: Loss of the righting reflex assay in mice; type: in vivo, mouse; conditions: 10 nmol, icv
Protocol: All of the experimental procedures adopted in the in vivo studies comply with the European Directive 2010/63/EU on protecting animals used for scientific purposes and Italian Legislative Decree no. 26 of March 4, 2014. These experiments were approved by the Animal Welfare Body of the University of Ferrara and by the Ministry of Health (authorization number 677/2024-PR). In vivo studies have been reported following ARRIVE guidelines. All experiments were conducted with mice bred and housed in the University of Ferrara’s animal facility under specific pathogen-free conditions. All mice were housed in cages with individual ventilation, with a constant temperature of 21 °C, 60% humidity, and a 12 h light/dark cycle. Food and water were provided ad libitum. CD-1 male and female mice, aged 2 to 4 months, were used. Details about the generation of NOP(−/−) and NOP(+/+) mice have been published previously; , these mice have been backcrossed on CD-1 strain in our laboratories. NOP(+/+) and NOP(−/−) littermates were obtained by mating with NOP(±) mice. All mice were genotyped using the polymerase chain reaction previously described. All mice were used only once. The RR assay was performed as previously described. […] Diazepam 15 mg/kg was injected ip. When the animals lost RR, they were placed in a plastic cage, and the time was recorded by an expert observer, blind to drug treatments and/or genotype. Animals were judged to have regained the RR response when they could correct themselves three times within 30 s. Sleeping time is defined as the amount of time between the loss and regaining of the RR; it was rounded to the nearest minute.
as §2

human NOP [4] = molecular target: T1, human NOP (Homo sapiens, UniProt P41146); assay: Calcium mobilization assay, CHO cells with NOP receptor and chimeric G protein; type: cell-based; design: expressed in transfected cells
Protocol: Chinese hamster ovary (CHO) cells stably coexpressing the human NOP, μ, or κ opioid receptors and the Gαqi5 protein or the human δ and the GαqG66Di5 protein were used in this assay. , Cells were cultured in DMEM/F-12 (1:1) medium supplemented with 10% FBS, 2 mM L-glutamine, […], 100 IU/mL penicillin, and 100 IU/mL streptomycin. Cells were maintained at 37 °C in a humidified atmosphere with 5% CO2 and were seeded at 50 000 cells/well into 96-well black, clear-bottom plates 24 h before test. Loading for 45 min with a solution consisting of HBSS supplemented with 2.5 mM probenecid, 3 μM Fluo-4 AM, and 0.01% pluronic acid ensures the calcium-sensitive dye (Fluo-4) reaches the needed concentration inside the cell, while the exchange of the solution with 100 μL/well of buffer consisting of HBSS with 20 mM HEPES, 2.5 mM probenecid, and 500 μM Brilliant Black allows for fluorescence background to decrease. Serial dilutions of ligands were prepared in HBSS buffer with 20 mM HEPES and 0.02% bovine serum albumin (BSA) to minimize the ligands’ stickiness to plasticware. The automated microplate reader FlexStation II (Molecular Devices, CA, US) was employed at 37 °C to detect changes in fluorescence intensity. The effects of all compounds were expressed as the maximum change in percentage over the baseline fluorescence measured in samples treated with vehicles.
as §2

human NOP [5] = molecular target: T1, human NOP; assay: NOP receptor–G protein interaction BRET assay; type: biochemical; design: expressed in transfected cells; host or cells: membranes of HEK293 cells stably coexpressing NOP-RLuc and Gβ1-RGFP; conditions: N = 5 experiments in duplicate
Protocol: A BRET interaction assay was used, as previously detailed in ref , to study the propensity of ligands to evoke interaction between the NOP receptor and to G protein. Membranes taken from HEK293 cells stably coexpressing the fusoproteins NOP-RLuc and Gβ1-RGFP were used. Such cells were grown in DMEM medium supplemented with 10% FBS, 2 mM L-glutamine, […] G418, […] hygromycin B, 100 IU/mL penicillin, and 100 IU/mL streptomycin in a humidified atmosphere with 5% CO2 at 37 °C. Cell membranes were thawed and resuspended in PBS supplemented with 0.01% BSA before the assay, and an amount of 3 μg of total protein was dispensed in each of the 96 wells together with 2 μM Prolume Purple Coelenterazine. All experiments were carried out at room temperature. Ligands were added, and averaged BRET ratios from 10 min measurements were computed. BRET ratios were computed as counts per second (CPS) obtained on a Victor Nivo (PerkinElmer) with 405 (10) nm and 510 (30) nm bandpass filters. Vehicles’ BRET ratios were derived from light passed through 510 divided by that passed through 405 filters. Vehicles BRET values were subtracted from all computations, and data sets were normalized as a fraction of N/OFQ maximal effects.
as §2

[6] = molecular target: murine NOP receptor (mouse (endogenous in mouse vas deferens)) (UniProt P35377)
NOP-RLuc = NOP-RLuc (UniProt P41146)
[7] = molecular target: human nociceptin/orphanin FQ (N/OFQ) peptide receptor (human) (UniProt P41146)
Sequence of human nociceptin/orphanin FQ (N/OFQ) peptide receptor (human) (P41146 whole entry): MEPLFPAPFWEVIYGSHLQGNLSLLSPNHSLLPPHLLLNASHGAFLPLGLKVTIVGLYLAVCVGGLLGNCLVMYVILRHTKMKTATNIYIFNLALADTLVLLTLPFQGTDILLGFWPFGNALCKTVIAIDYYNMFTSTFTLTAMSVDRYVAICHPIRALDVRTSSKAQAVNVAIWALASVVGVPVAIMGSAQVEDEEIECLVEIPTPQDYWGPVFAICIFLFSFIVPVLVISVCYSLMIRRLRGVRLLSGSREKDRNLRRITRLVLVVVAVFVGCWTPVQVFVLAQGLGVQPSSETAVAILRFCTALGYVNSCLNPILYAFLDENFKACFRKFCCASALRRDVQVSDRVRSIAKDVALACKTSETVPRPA

Sequence of murine NOP receptor (mouse (endogenous in mouse vas deferens)) (P35377 whole entry): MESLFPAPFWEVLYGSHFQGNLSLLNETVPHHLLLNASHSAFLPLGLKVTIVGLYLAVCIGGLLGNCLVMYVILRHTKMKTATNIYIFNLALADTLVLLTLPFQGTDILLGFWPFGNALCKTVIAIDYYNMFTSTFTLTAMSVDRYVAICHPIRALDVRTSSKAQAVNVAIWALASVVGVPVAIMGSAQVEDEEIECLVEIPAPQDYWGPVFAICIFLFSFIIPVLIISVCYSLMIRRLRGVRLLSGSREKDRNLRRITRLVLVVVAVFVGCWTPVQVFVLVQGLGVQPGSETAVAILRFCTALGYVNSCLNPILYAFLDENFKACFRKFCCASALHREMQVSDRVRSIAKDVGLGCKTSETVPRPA
T1 sequence (P41146 whole entry): as the sequence (P41146 whole entry) above
Sequence of NOP-RLuc (P41146 whole entry): as above

Molecule: O=C1NCN(c2ccccc2)C12CCN([C@@H]1CC[C@H]3CCCc4cccc1c43)CC2 [Ro 64-6198]
- induced sleep at EEG recordings (sleep in rats): 3 to 5 h

Molecule: [D-Pen^2,D-Pen^5]enkephalin [DPDPE]
- potency (pEC50) for inhibition of electrically induced contractions [1]: 7.72 (7.45–7.99)
- maximal inhibition of electrically induced contractions [1]: 86 ± 6%
- effect in mVD tissues from NOP(−/−) mice (in words) [2]: superimposable

Molecule: nociceptin/orphanin FQ [N/OFQ]
- potency (pEC50) for inhibition of electrically induced contractions [1]: 7.59 (7.41–7.77)
- maximal inhibition of electrically induced contractions [1]: 71 ± 4%
- kinetics of action in mVD (in words) ([1]; onset and reversibility upon washout): fully and rapidly reversible upon washout
- effect in mVD tissues from NOP(−/−) mice (in words) [2]: completely inactive
- mice that lost the RR, 10 nmol ([3]; CD-1 mice, N = 8–10 per group): fewer than half
- duration of action on RR (in words) ([3]; mice that lost the RR): short-lasting action; also recorded: few minutes

Molecule: CC(C)C[C@H](NC(=O)[C@H](CCCCN)NC(=O)[C@H](CCCNC(=N)N)NC(=O)[C@H](C)NC(=O)[C@H](CO)NC(=O)[C@H](CCCCN)NC(=O)[C@H](CCCNC(=N)N)NC(=O)[C@H](CSSC[C@H](NC(=O)CNC(=O)[C@@H](NC(=O)[C@H](Cc1ccccc1)NC(=O)CNC(=O)CNC(=O)[C@@H](N)Cc1ccccc1)[C@@H](C)O)C(=O)N[C@@H](CCCNC(=N)N)C(=O)N[C@@H](CCCCN)C(=O)N[C@@H](CO)C(=O)N[C@@H](C)C(=O)N[C@@H](CCCNC(=N)N)C(=O)N[C@@H](CCCCN)C(=O)N[C@@H](CC(C)C)C(=O)N[C@@H](C)C(=O)N[C@@H](CC(N)=O)C(=O)N[C@@H](CCC(N)=O)C(N)=O)NC(=O)CNC(=O)[C@@H](NC(=O)[C@H](Cc1ccccc1)NC(=O)CNC(=O)CNC(=O)[C@@H](N)Cc1ccccc1)[C@@H](C)O)C(=O)N[C@@H](C)C(=O)N[C@@H](CC(N)=O)C(=O)N[C@@H](CCC(N)=O)C(N)=O [1a, [[Cys^7]N/OFQ-NH2]2] (I: H-FGGFTGCRKSARKLANQ-NH2 / II: H-FGGFTGCRKSARKLANQ-NH2; disulfide I:7-II:7)
- EC50 (human NOP [4]; CHO cells coexpressing human NOP and Gαqi5, Fluo-4, 37 °C, mean (CL95%), N = 5 experiments in duplicate, read-out: Ca^2+ mobilization pEC50 (CL95%) (converted)): 26.9 nM
- Ca^2+ mobilization E max ± sem (human NOP [4]; CHO cells coexpressing human NOP and Gαqi5, maximum change in percentage over baseline fluorescence, mean ± sem, N = 5 in duplicate): 293 ± 18 % over the baseline
- NOP–G protein interaction E max ± sem (human NOP [5]; effects normalized to N/OFQ-NH2 (E max = 1), mean ± sem): 1.09 ± 0.09
- EC50 (human NOP [5]; membranes from HEK293 cells coexpressing NOP-RLuc and Gβ1-RGFP, room temperature, mean (CL95%), read-out: NOP–G protein interaction pEC50 (CL95%) (converted)): 1.95 nM

Molecule: O=C(O)c1nc2ccccc2n([C@@H]2C[C@H]3CCC[C@@H](C2)N3C2C[C@H]3CCC[C@@H](C2)C3)c1=O (stereo partly shown) [Sunobinop]
- induced sleep at EEG recordings (sleep in rats): 3 to 5 h

Molecule: nociceptin/orphanin FQ (peptide)
- maximal inhibition of electrically induced contractions of the mouse vas deferens, NOP(+/+) tissues [6]: 71%
- potency (pEC50), inhibition of electrically induced contractions of the mouse vas deferens, NOP(+/+) tissues [6]: 7.59 pEC50

Molecule: FGGFTGARKSARKCANQ-NH2 (also: homodimer: Cys14-Cys14 disulfide to second copy) [[[Cys^14]N/OFQ-NH2]2]
- pEC50, NOP–G protein interaction (BRET, membranes of HEK293 cells with NOP-RLuc and Gβ1-RGFP) (NOP-RLuc): 9.91 pEC50
- E max, NOP–G protein interaction (BRET), normalised to N/OFQ-NH2 (E max = 1) (NOP-RLuc; scale: fraction of the maximal effect of N/OFQ-NH2): 0.8
- E max, Ca^2+ mobilization in CHO cells with human NOP and Gαqi5 (% over baseline) [7]: 241
- pEC50, Ca^2+ mobilization in CHO cells with human NOP and Gαqi5 [7]: 9.14 pEC50
- pEC50, inhibition of electrically induced contractions of the mouse vas deferens, NOP(+/+) tissues [6]: 6.79 pEC50
